According to paper PMC5218591 (Bioorganic & medicinal chemistry, 2016):

Target: GPR88 (Homo sapiens, UniProt Q9GZN0)
Details: for agonist activity at GPR88 (in words): purified compounds, Lance cAMP assay; for fold less potent than 3: versus 3

Chain of GPR88 (Q9GZN0 whole entry, species assumed): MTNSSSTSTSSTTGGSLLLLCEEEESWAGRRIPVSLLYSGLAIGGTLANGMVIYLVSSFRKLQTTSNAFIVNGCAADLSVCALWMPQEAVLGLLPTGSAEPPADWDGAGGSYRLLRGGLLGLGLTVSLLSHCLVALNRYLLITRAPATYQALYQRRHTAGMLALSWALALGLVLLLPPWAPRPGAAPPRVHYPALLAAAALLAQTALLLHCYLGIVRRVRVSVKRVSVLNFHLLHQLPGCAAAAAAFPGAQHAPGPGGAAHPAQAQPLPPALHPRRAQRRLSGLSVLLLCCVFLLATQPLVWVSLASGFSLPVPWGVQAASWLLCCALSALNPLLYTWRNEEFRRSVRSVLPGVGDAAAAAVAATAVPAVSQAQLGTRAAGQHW

CCCC(C)COc1ccc([C@@H](NC(=O)[C@H](C)c2ccccc2)C(=O)OC)cc1 (some centres unmarked) [Compound 13az]
agonist activity as percentage of TR-FRET signal of the control compound 11a (library screen at 1 μM final, crude compounds, 11a = 100%, Figure 2): less potent than the (S)-isomer

CCCC(C)COc1ccc([C@@H](NC(=O)[C@@H](CC)c2ccccc2)C(=O)OC)cc1 (stereo partly drawn) [Compound 13aw, Methyl (2R)-2-[4-(2-methylpentyloxy)phenyl]-2-[(S)-2-phenylbutanamido]acetate]
agonist activity at GPR88 (in words): equipotent with 11a
fold more potent than 13a (versus 13a): 4.5 fold

CCCC(C)COc1ccc([C@@H](NC(=O)Cc2ccccc2)C(=O)OC)cc1 (stereo partly drawn) [Compound 13a, Methyl (2R)-2-[4-(2-methylpentyloxy)phenyl]-2-(2-phenylacetamido)acetate]
fold less potent than 11a (versus 11a): 5 fold

CCCC(C)COc1ccc([C@@H](NC(=O)C(C)C2CCCCC2)C(=O)OC)cc1 (stereo partly drawn) [Compound 12d, Methyl (2R)-2-[4-(2-methylpentyloxy)phenyl]-2-[(R,S)-2-cyclohexylpropanamido]-acetate]
agonist activity at GPR88 (in words): completely inactive

CCCC(C)COc1ccc([C@@H](NC(=O)[C@@H](C)c2ccccc2)C(=O)O)cc1 (stereo partly drawn) [Compound 11b, (2R)-2-[4-(2-Methylpentyloxy)phenyl]-2-[(S)-2-phenylpropanamido]acetic acid]
agonist activity at GPR88 (in words): completely inactive

CCCC(C)COc1ccc([C@@H](NC(=O)[C@@H](C)c2ccccc2)C(=O)OC)cc1 (stereo partly drawn) [Compound 11a, Methyl (2R)-2-[4-(2-methylpentyloxy)phenyl]-2-[(S)-2-phenylpropanamido]acetate]
fold less potent than 3: approximately 2.5 fold

CCCC(C)COc1ccc([C@H](CO)NC(=O)Cc2ccccc2)cc1 (stereo partly drawn) [Compound 12a, N-{(1R)-2-Hydroxy-1-[4-(2-methylpentyloxy)phenyl]ethyl}-2-phenylacetamide]
fold less potent than 3: approximately 2 fold
